The record followed here is PubChem BioAssay AID179 (DTP/NCI, 2004).

Activity calls are given as the source filed them.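 The calls were made as follows: active = compounds giving half or more protection of infected cells from virus-caused growth loss, again on retest; inactive = the rest.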

The test system of this experiment is CEM cells HIV-1 protection, formazan growth assay. In words: NCI AIDS Antiviral Assay. Conditions: for IC50: measured here: growth of uninfected CEM cells. An outline of the steps: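 CEM (human) cells, HIV-1 infected vs uninfected, 5-point dosing, formazan growth read-out. Retest threshold 50% protection.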

As usually defined, the EC50 is the concentration needed to bring the measured effect to its halfway point. By IC50 is commonly meant the midpoint of a concentration-inhibition curve. `CCN(CC)CC(C(=O)Nc1c(C)cccc1C)/C(C)=N\NC(=O)c1ccncc1` (configuration not stated): the EC50 was above 33.1 µM and the IC50 is above 33.1 µM. For `O=C(NCc1ccccc1)OCCO`, the result was inactive.

Regarding `N/N=C1/CCCc2nonc21`, the EC50 is above 200 µM and the 50% inhibitory concentration (IC50) was above 200 µM.

With `Clc1ccccc1C[P+](c1ccccc1)(c1ccccc1)c1ccccc1`, the EC50 was above 200 µM and the IC50 was 4.57 µM. In the same order, the values of `COn1c2ccccc2c2c1cc1ccccc1[n+]2[O-]` are above 67.6 µM and 31.6 µM.

For `O=C1Oc2ccccc2C(=O)/C1=C/N1C(=O)/C(=C/c2ccc([N+](=O)[O-])cc2)SC1=S`, the EC50 was above 200 µM and the IC50 was found to be 1.1 µM. In the same order, the values of `Cc1c(N=O)cc(C(C)C)c(O)c1I` are above 200 µM and 27.5 µM.

`COC(=O)C1=C(C(=O)OC)C(C(=O)OC)N2C=CC=CC2=C1C(=O)OC` (configuration not stated): the EC50 is above 200 µM and the concentration for half-maximal inhibition (IC50) was above 200 µM. Consider `Cc1ccc(S(=O)(=O)N2C3C=CC(C3)[C@@H]2C(Cl)(Cl)Cl)cc1` (some centres not stated), for which the EC50 is above 200 µM and the half-maximal inhibitory concentration (IC50) was 30.9 µM. In the same order, the values of `Cc1ccc(SCC(CF)OCn2cnc3c(=O)[nH]c(N)nc32)cc1` (configuration not stated) are above 20 µM and above 20 µM. Regarding `O=S(=O)(CCn1c(Sc2ccccc2)c(Sc2ccccc2)c2ccccc21)c1ccccc1`, the EC50 was above 200 µM and the IC50 is above 200 µM. Take `Nc1nc(Cl)cc(NCC2(CO)CC(O)C2)n1` (configuration not stated): the EC50 is above 200 µM and the IC50 is above 200 µM. Regarding `O=C1C=CC2OC(c3ccccc3)[C@H](O)C2O1` (some centres not stated), the EC50 is above 1070 µM and the IC50 was found to be 6.92 µM. Consider `ClCc1nn(-c2ccccc2)c(CCl)c1CCl`, for which the EC50 was above 200 µM and the concentration for half-maximal inhibition (IC50) amounted to 1.23 µM. For `CCOC(=O)C1=C(C)N(NC(N)=O)C2(N)N(NC(N)=O)C(C)=C(C(=O)OCC)C12C#N` (configuration not stated), the EC50 was above 575 µM and the IC50 was determined as 427 µM. On to `NC(CCc1ncc(C(=O)O)s1)C(=O)O` (configuration not stated), for which the outcome was inactive. Consider `C=CCc1cccc(/C(O)=C/C(=O)/C=C/c2ccccc2Cl)c1O`, for which the EC50 was above 200 µM and the IC50 is 35.5 µM. For the compound `Cc1cc(O)c2c(O)c3c(O)cc(=O)c(-c4c(=O)cc(O)c5c(O)c6c(O)cc(C)oc6cc45)c3cc2o1`, the result was inactive. Consider `COC(=O)c1ccc2c(c1)CC1(C2)Cc2cc3c(cc2C1=O)CCC3` (configuration not stated), for which the EC50 is above 200 µM and the IC50 is 20 µM.

Consider `CC(=O)c1ccc2c3c(ccc([N+](=O)[O-])c13)C(=O)OC2=O`, for which the EC50 was above 200 µM and the IC50 is 30.9 µM. With `NC(=O)NCCCC(NC(=O)OCCCCCn1ccc(=O)[nH]c1=O)C(=O)O` (configuration not stated), the EC50 is above 100 µM and the IC50 was above 100 µM. In the case of `O=C(CSCc1cc(S(=O)(=O)O)c2cccnc2c1O)Nc1ccc(/C=C/c2ccc(NC(=O)CSCc3cc(S(=O)(=O)O)c4cccnc4c3O)cc2S(=O)(=O)O)c(S(=O)(=O)O)c1`, the EC50 was above 200 µM and the IC50 was above 200 µM. Take `CC(=O)c1cccc(NC(=O)C(=O)C(c2cnc3ccc([N+](=O)[O-])cc3n2)[N+](=O)[O-])c1` (configuration not stated): the EC50 was above 117 µM and the half-inhibitory concentration (IC50) is above 117 µM.

On to `CC(C)SC(C)(NC(=O)C1C(C)(C)CCC1(C)C)C(=O)O` (configuration not stated), for which the EC50 was above 200 µM and the IC50 is above 200 µM. With `CC(=O)N1CCCCCC1=O`, the EC50 was above 1620 µM and the IC50 is above 1620 µM. `O=C(NCCCCCCNC(=O)n1cc(F)c(=O)[nH]c1=O)NCCCOCCOCCOCCOCCOCCOCCOCCOCCOCCOCCOCCOCCOCCOCCOCCOCCOCCOCCOCCOCCOCCCNC(=O)C(O)C(O)C(OC1OC(CO)C(O)C(O)C1O)C(O)CO` (configuration not stated): the outcome was inactive. On to `Cc1nc(Nc2ccc(Cl)c(Cl)c2)sc1C(/C=C/c1ccc2c(c1)OCO2)=N/Nc1ccc([N+](=O)[O-])cc1[N+](=O)[O-]`, for which the EC50 is above 2.34 µM and the IC50 was above 2.34 µM. Consider `CCOCC=NCC(=O)OCC`, for which the EC50 is above 1450 µM and the IC50 was above 1450 µM. For the compound `COC(=O)C1C(=O)CC[C@H]2CN3CCc4c([nH]c5ccccc45)C3CC12` (some centres not stated), the EC50 was above 53.7 µM and the IC50 was above 53.7 µM.

On to `Cc1ccc(Cc2n[nH]c(=O)[nH]2)cc1`, for which the EC50 was above 200 µM and the 50% inhibitory concentration (IC50) is above 200 µM.

Take `O=C(C[C@@H]1CCCN2CCCC[C@H]12)N1c2ccccc2Sc2ccc(Cl)cc21`: the EC50 is above 200 µM and the IC50 turned out to be 20.9 µM. In the same order, the values of `COc1ccc(C(=O)/C=C/c2ccc(OCCCOc3ccc(/C=C/C(=O)c4ccc(OC)c(OC)c4)cc3)cc2)cc1OC` are above 200 µM and above 200 µM.

As to `Nc1nc(=S)[nH]c2n[nH]nc12`, the EC50 was above 200 µM and the IC50 was above 200 µM. As for `CCOC(=O)CNC1C(NC(C)=O)C(OC)OC2COC(c3ccccc3)OC21` (configuration not stated), the result was inactive. Consider `CCCCCCCCCc1nn2c(Cc3ccccc3)nnc2s1`, for which the EC50 was above 200 µM and the half-inhibitory concentration (IC50) was determined as 36.3 µM.

Turning to `O=c1cc(O)nc2nc(-c3ccccc3)c(-c3ccccc3)nn12`, the EC50 is above 81.3 µM and the IC50 was above 81.3 µM. For the compound `O=S(=O)(c1ccc(O)cc1)c1ccc(O)cc1`, the EC50 was above 200 µM and the IC50 was determined as 158 µM. In the same order, the values of `Cn1c2ccccc2n2c3ccccc3c3nnc(N)c-3c12` are above 200 µM and 28.2 µM. In the same order, the values of `CCOC(=O)c1c2ccccc2n2c(=O)n(-c3ccccc3)nnc12` are above 200 µM and 35.5 µM. In the same order, the values of `Cc1cc(C)nc(NC(=S)Nc2ccc(Cl)cc2)c1` are above 100 µM and above 100 µM. On to `CC1(C)CC(C)(C)CC(O)(C2(O)CC(C)(C)CC(C)(C)C2)C1`, for which the EC50 was above 8.71 µM and the IC50 is above 8.71 µM. In the case of `Cc1cc(C)nc(NS(=O)(=O)c2ccc(Nc3c4ccccc4nc4c(C(=O)N5CCN(CCO)CC5)ccc(Cl)c34)cc2)n1`, the EC50 is above 34.7 µM and the IC50 is above 34.7 µM. `CCOC(=O)Cc1oc2c(C(C)=O)c(O)c(C)c(O)c2c1C`: the EC50 was above 200 µM and the half-maximal inhibitory concentration (IC50) worked out at 81.3 µM.

As to `CCOC(=O)/C(C#N)=C/c1ccc(Br)cc1`, the EC50 was above 93.3 µM and the IC50 is above 93.3 µM.

As for `CCOC(Cc1c(N)[nH]c(=S)[nH]c1=O)OCC`, the EC50 was above 200 µM and the IC50 was above 200 µM. With `CCc1cccc(C(C)CC)c1NC(=O)CC1C(=O)Nc2ccccc2S1(=O)=O` (configuration not stated), the EC50 was above 12 µM and the IC50 is above 12 µM. With `CC1(C)COC2(C)ON12` (configuration not stated), the EC50 is above 200 µM and the IC50 was above 200 µM.

Consider `O=c1[nH]c(=O)n(C2CC(O)C(CO)O2)cc1OCCc1ccccc1` (configuration not stated), for which the EC50 is above 200 µM and the IC50 was above 200 µM. On to `Cc1cc(S(=O)(=O)Nc2nc(N)n(C)n2)c(S)cc1Cl`, for which the EC50 was above 200 µM and the concentration for half-maximal inhibition (IC50) is above 200 µM. As for `Cc1nc(N)nc(N)c1N1CCN(c2ccc(S(N)(=O)=O)cc2)CC1`, the EC50 was above 200 µM and the IC50 was 0.398 µM. For the compound `O=C1C2=Cc3ccccc3CCN2c2ccc([N+](=O)[O-])cc21`, the EC50 is above 200 µM and the IC50 turned out to be 166 µM.
